From ChEMBL document CHEMBL1671621, “Efficient clearance of Aspergillus fumigatus in murine lungs by an ultrashort antimicrobial lipopeptide, palmitoyl-lys-ala-DAla-lys” (Antimicrob Agents Chemother, 2008)
Values after ≈ are worked out from the molar mass of the structure shown. One block for each molecule: values may come before it. Active and inactive are the calls of the source. No cut-off for these calls is given here. Where a SMILES comes first, the peptide text is derived from it. [ ]: non-standard residue; d: D form. The star is where a group is joined. Palmitoyl = CCCCCCCCCCCCCCCC(=O)*; Lauroyl = CCCCCCCCCCCC(=O)*

Assays:
[1] = Toxicity in human RBC assessed as hemolysis at 50 uM; format: cell-based, Erythrocyte; conditions: red blood cells (RBC), read-out: Activity
Aspergillus fumigatus [2] = assay: Antifungal activity against Aspergillus fumigatus CBS 144.89 by CLSI […] method; format: functional
[3] = Toxicity in human RBC assessed as hemolysis at 20 uM; format: cell-based, Erythrocyte; conditions: red blood cells (RBC), read-out: Activity
Aspergillus fumigatus [4] = assay: Antifungal activity against DsRed-labeled Aspergillus fumigatus CBS 144.89 infected in immunocompromized C57BL/6 mouse assessed fungal hyphae degradation in lung at 4.5 mg/kg qd administered intratracheally for 4 days relative to untreated control; format: functional, organism-based; parameters: dose 4.5 mg/kg
Aspergillus fumigatus [5] = assay: Antifungal activity against DsRed-labeled Aspergillus fumigatus CBS 144.89 infected in transgenic C57BL/6 Cx3cr1 gfp/+mouse assessed as decrease in residual fungal spore colocalized with macrophage and dendritic cell at 4.5 mg/kg qd administered intratracheally for 4 days relative to untreated control; format: functional, organism-based; parameters: dose 4.5 mg/kg
Mus musculus [6] = assay: Toxicity in immunosuppressed C57BL/6 mouse assessed as mild multifocal interstitial plasmacytic infiltration at 1 mg/kg administered intratracheally on days 1, 4, 7 and 11 one day post infection; format: organism-based; parameters: dose 1 mg/kg, route endotracheal; conditions: in vivo, inhaled_or_intranasal
Aspergillus fumigatus [7] = assay: Antifungal activity against Aspergillus fumigatus CBS 144.89 infected in immunosuppressed wild-type C57BL/6 mouse assessed as increase in survival rate at 4.5 mg/kg administered intratracheally on days 1, 4, 7 and 11 one day post infection measured after 21 days relative to untreated control; format: functional, organism-based; parameters: dose 4.5 mg/kg
Aspergillus fumigatus [8] = assay: Antifungal activity against Aspergillus fumigatus CBS 144.89 infected in immunosuppressed wild-type C57BL/6 mouse assessed as recovery from infection at 4.5 mg/kg administered intratracheally on days 1, 4, 7 and 11 one day post infection measured after 21 days relative to untreated control; format: functional; conditions: route endotracheal
Aspergillus fumigatus [9] = assay: Antifungal activity against Aspergillus fumigatus CBS 144.89 infected in immunosuppressed wild-type C57BL/6 mouse assessed as increase in survival rate at 4.5 mg/kg administered intratracheally as single dose one day postinfection measured after 14 days relative to untreated control; format: functional, organism-based; parameters: dose 4.5 mg/kg
Aspergillus fumigatus [10] = assay: Antifungal activity against DsRed-labeled Aspergillus fumigatus CBS 144.89 infected in transgenic C57BL/6 Cx3cr1 gfp/+ mouse assessed as macrophages phygocytosed-fungal conidia at 4.5 mg/kg qd administered intratracheally for 4 days relative to untreated control; format: functional, organism-based; parameters: dose 4.5 mg/kg
Mus musculus [11] = assay: Toxicity in immunosuppressed C57BL/6 mouse assessed as mild multifocal interstitial plasmacytic infiltration at 4.5 mg/kg administered intratracheally on days 1, 4, 7 and 11 one day post infection; format: organism-based; parameters: dose 4.5 mg/kg, route endotracheal; conditions: in vivo, inhaled_or_intranasal
Aspergillus fumigatus [12] = assay: Antifungal activity against Aspergillus fumigatus CBS 144.89 infected in immunosuppressed wild-type C57BL/6 mouse assessed as increase in survival rate at 4.5 mg/kg administered intratracheally for 4 days from the day of infection measured after 14 days relative to untreated control; format: functional, organism-based; parameters: dose 4.5 mg/kg
Aspergillus fumigatus [13] = assay: Antifungal activity against DsRed-labeled Aspergillus fumigatus CBS 144.89 infected in immunocompromized mouse assessed as decrease in residual fungal spore colocalized with macrophage and dendritic cell at 4.5 mg/kg qd administered intratracheally for 4 days relative to untreated control; format: functional, organism-based; parameters: dose 4.5 mg/kg
Aspergillus fumigatus [14] = assay: Antifungal activity against DsRed-labeled Aspergillus fumigatus CBS 144.89 infected in immunocompromized mouse assessed as macrophages phygocytosed-fungal conidia at 4.5 mg/kg qd administered intratracheally for 4 days relative to untreated control; format: functional, organism-based; parameters: dose 4.5 mg/kg
Aspergillus fumigatus [15] = assay: Antifungal activity against Aspergillus fumigatus CBS 144.89 infected in immunosuppressed wild-type C57BL/6 mouse assessed as clearance of fungal forms in lung at 4.5 mg/kg administered intratracheally on days 1, 4, 7 and 11 one day post infection measured after 21 days relative to untreated control; format: functional, organism-based; parameters: dose 4.5 mg/kg
Aspergillus fumigatus [16] = assay: Antifungal activity against Aspergillus fumigatus CBS 144.89 infected in immunosuppressed wild-type C57BL/6 mouse assessed as increase in survival rate at 1 mg/kg administered intratracheally as single dose one day postinfection measured after 14 days relative to untreated control; format: functional, organism-based; parameters: dose 1 mg/kg
Mus musculus [17] = assay: Toxicity to immunosuppressed C57BL/6 mouse assessed as airway infiltration of neutrophils at 1 to 4.5 mg/kg administered intratracheally on days 1, 4, 7 and 11 one day post infection; format: organism-based; parameters: dose 1-4.5 mg/kg, route endotracheal; conditions: in vivo, inhaled_or_intranasal
Mus musculus [18] = assay: Toxicity in immunosuppressed C57BL/6 mouse assessed as macrophage infiltration in the airways at 1 to 4.5 mg/kg administered intratracheally on days 1, 4, 7 and 11 one day post infection; format: organism-based; parameters: dose 1-4.5 mg/kg, route endotracheal; conditions: in vivo, inhaled_or_intranasal
Aspergillus fumigatus [19] = assay: Antifungal activity against Aspergillus fumigatus CBS 144.89 infected in immunosuppressed wild-type C57BL/6 mouse assessed as increase in survival rate at 1 mg/kg administered intratracheally for 4 days from the day of infection measured after 14 days relative to untreated control; format: functional, organism-based; parameters: dose 1 mg/kg
Mus musculus [20] = assay: Toxicity in immunosuppressed C57BL/6 mouse assessed as hemorrhages at 1 to 4.5 mg/kg administered intratracheally on days 1, 4, 7 and 11 one day post infection; format: organism-based; parameters: dose 1-4.5 mg/kg, route endotracheal; conditions: in vivo, inhaled_or_intranasal
Mus musculus [21] = assay: Toxicity in immunosuppressed C57BL/6 mouse assessed as edema at 1 to 4.5 mg/kg administered intratracheally on days 1, 4, 7 and 11 one day post infection; format: organism-based; parameters: dose 1-4.5 mg/kg, route endotracheal; conditions: in vivo, inhaled_or_intranasal
Aspergillus fumigatus [22] = assay: Antifungal activity against DsRed-labeled Aspergillus fumigatus CBS 144.89 infected in immunocompromized C57BL/6 mouse assessed fungal hyphae degradation in lung at 1 mg/kg qd administered intratracheally for 4 days relative to untreated control; format: functional, organism-based; parameters: dose 1 mg/kg
Mus musculus [23] = assay: Toxicity in immunosuppressed C57BL/6 mouse assessed as blood vessel formation at 1 to 4.5 mg/kg administered intratracheally on days 1, 4, 7 and 11 one day post infection; format: organism-based; parameters: dose 1-4.5 mg/kg, route endotracheal; conditions: in vivo, inhaled_or_intranasal
Mus musculus [24] = assay: Toxicity in immunosuppressed C57BL/6 mouse assessed as vasculitis at 1 to 4.5 mg/kg administered intratracheally on days 1, 4, 7 and 11 one day post infection; format: organism-based; parameters: dose 1-4.5 mg/kg, route endotracheal; conditions: in vivo, inhaled_or_intranasal

Structure (SMILES): CCCCCCCCCCCC(=O)N[C@@H](CC(=O)O)C(=O)N[C@@H](CC(C)C)C(=O)N[C@@H](CCCCN)C(=O)N[C@@H](CCCCN)C(=O)N[C@@H](CC(C)C)C(=O)N[C@@H](CC(C)C)C(=O)N[C@@H](CCCCN)C(=O)N[C@@H](CCCCN)C(=O)N[C@@H](CC(C)C)C(=O)N[C@@H](CC(C)C)C(=O)N[C@@H](CCCCN)C(=O)N[C@@H](CCCCN)C(=O)N[C@@H](CC(C)C)C(=O)O (Lauroyl-DLKKLLKKLLKKL-OH)
hemolysis at 50 µM [1]: 0% | MIC (Aspergillus fumigatus [2]): 20.8 µg/mL (≈ 11.8 µM) | hemolysis at 20 µM [3]: 0% | Activity (Aspergillus fumigatus [4]): Active

Structure (SMILES): CCCCCCCCCCCC(=O)N[C@@H](CCCCN)C(=O)N[C@@H](CC(C)C)C(=O)N[C@H](CC(C)C)C(=O)N[C@@H](CCCCN)C(=O)O (Lauroyl-KL[dL]K-OH)
hemolysis at 50 µM [1]: 0% | MIC (Aspergillus fumigatus [2]): 34 µg/mL (≈ 49.8 µM) | hemolysis at 20 µM [3]: 0%

Structure (SMILES): CCCCCCCCCCCCCCCC(=O)N[C@@H](CCCCN)C(=O)N[C@@H](C)C(=O)N[C@H](C)C(=O)N[C@@H](CCCCN)C(=O)O (Palmitoyl-KA[dA]K-OH)
hemolysis at 50 µM [1]: 3% | MIC (Aspergillus fumigatus [2]): 8 µg/mL (≈ 12.2 µM) | Activity (Aspergillus fumigatus [5]): Active | Activity (Mus musculus [6]): Toxic | Activity (Aspergillus fumigatus [7]): Active | Activity (Aspergillus fumigatus [8]): 25% | Activity (Aspergillus fumigatus [9]): Active | Activity (Aspergillus fumigatus [10]): Active | Activity (Mus musculus [11]): Toxic | Activity (Aspergillus fumigatus [12]): Active | hemolysis at 20 µM [3]: 0% | Activity (Aspergillus fumigatus [4]): Active | Activity (Aspergillus fumigatus [13]): Active | Activity (Aspergillus fumigatus [14]): Active | Activity (Aspergillus fumigatus [15]): Active

Second part, led by results:

MIC (Aspergillus fumigatus [2]): 2 µg/mL (≈ 2.71 µM)
Structure (SMILES): CCCCCCCCCCCCCCCC(=O)N[C@@H](CCCCN)C(=O)N[C@@H](CC(C)C)C(=O)N[C@H](CC(C)C)C(=O)N[C@@H](CCCCN)C(=O)O
hemolysis at 50 µM [1]: 45% | hemolysis at 20 µM [3]: 9%

MIC (Aspergillus fumigatus [2]): 9 µg/mL (≈ 12.7 µM)
Structure (SMILES): CCCCCCCCCCCCCC(=O)N[C@@H](CCCCN)C(=O)N[C@@H](CC(C)C)C(=O)N[C@H](CC(C)C)C(=O)N[C@@H](CCCCN)C(=O)O
hemolysis at 50 µM [1]: 50% | hemolysis at 20 µM [3]: 13%

MIC (Aspergillus fumigatus [2]): 38.4 µg/mL (≈ 49.9 µM)
Structure (SMILES): CCCCCCCCCCCCCCCC(=O)N[C@@H](CCCCN)C(=O)N[C@@H](CCCCN)C(=O)N[C@H](CCCCN)C(=O)N[C@@H](CCCCN)C(=O)O (Palmitoyl-KK[dK]K-OH)
hemolysis at 50 µM [1]: 6% | hemolysis at 20 µM [3]: 0%

MIC (Aspergillus fumigatus [2]): 11.5 µg/mL (≈ 12.4 µM)
Structure (SMILES): C[C@@H]1[C@H](O)[C@@H](C)/C=C/C=C/C=C/C=C/C=C/C=C/C=C/[C@H](O[C@@H]2O[C@H](C)[C@@H](O)[C@H](N)[C@@H]2O)C[C@@H]2O[C@](O)(C[C@@H](O)C[C@@H](O)[C@H](O)CC[C@@H](O)C[C@@H](O)CC(=O)O[C@H]1C)C[C@H](O)[C@H]2C(=O)O [AMPHOTERICIN B]
Activity (Aspergillus fumigatus [16]): inactive | Activity (Mus musculus [17]): Toxic | Activity (Mus musculus [18]): Toxic | Activity (Aspergillus fumigatus [19]): inactive | Activity (Mus musculus [20]): Toxic | Activity (Mus musculus [21]): Toxic | Activity (Aspergillus fumigatus [22]): inactive | Activity (Mus musculus [23]): Toxic | Activity (Mus musculus [24]): Toxic
